# The NIST ThermoML archive (doi:10.1016/j.fluid.2014.07.032)
# ± gives the expanded uncertainty stated by the source.
# Experiments:
# [1] = Liquid; for Normal boiling temperature: Ebulliometric method (Recirculating still); for mass density: 298.15 K, 101.33 kPa, Vibrating tube method
# [2] = refractive index (Na D-line) (dimensionless); details: 298.15 K; 101.33 kPa; Liquid; Standard Abbe refractometry
Normal boiling temperature [1] [°C],refractive index [2],mass density [1] [kg/m3],SMILES
100.1 ± 1,1.3324 ± 0.0007,,O [water]
199.10 ± 0.2,1.4205 ± 0.0007,872.25 ± 0.24,CCCCC(CC)COC(C)=O (stereo not drawn) [2-ethylhexyl acetate]
118.1 ± 1,1.3713 ± 0.0007,1049.42 ± 0.08,CC(=O)O [acetic acid]
